Assay results published in ChEMBL document CHEMBL1201862, “PubChem BioAssay data set” (2004).
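Growth conditions: 96-well plates. Treatment: test compound, 48 hours, 5 concentrations. Analysis: linear interpolation between bracketing concentrations; unreached endpoints set to highest concentration. GI50 is the concentration that inhibits growth by half.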 Activity calls are given as the source filed them. Rule as the data show it: active = GI50 up to about 1.1 µM and inactive = higher.

Key:
Assay in all cases: inhibition of tumour cell growth, NCI panel, 48 h
[1] = test system: HOP-92
[2] = test system: SNB-19
[3] = test system: UACC-62
[4] = test system: SF-295
[5] = test system: HOP-62
[6] = test system: K562
[7] = test system: SF-268
[8] = test system: SF-539
[9] = test system: HCC 2998
[10] = test system: ACHN
[11] = test system: HCT-116
[12] = test system: SK-MEL-28
[13] = test system: NCI-H226
[14] = test system: SNB-75
[15] = test system: NCI-H460
[16] = test system: KM12
[17] = test system: SK-MEL-2

Measured: GI50

O=C1c2ccccc2N2OC3(N4CCCC4)CCCC3C12c1ccccc1 (configuration not stated)
inactive: [1] 34.8 µM | [2] > 100 µM | [3] 74.3 µM | [4] 86.1 µM | [5] > 100 µM | [6] 76.6 µM | [7] > 100 µM | [8] > 100 µM | [9] > 100 µM | [10] > 100 µM | [11] 73.3 µM | [12] > 100 µM | [13] > 100 µM | [14] > 100 µM

C=C(C)CCOC(c1ccccc1)(c1ccccc1)c1ccccc1
inactive: [1] 33.6 µM | [15] 29.1 µM | [16] 48.6 µM | [2] > 100 µM | [3] 40.1 µM | [4] 37.4 µM | [5] 70.5 µM | [6] > 100 µM | [7] 47 µM | [8] 91 µM | [9] 25.6 µM | [10] 25.7 µM | [11] 18.7 µM | [12] 42.7 µM | [13] 26.3 µM | [14] 68.7 µM

CC1CC2C(=O)N(c3ccccc3)C(=O)C2c2[nH]c3ccccc3c21 (configuration not stated)
inactive: [15] 63.7 µM | [16] 58.5 µM | [3] > 100 µM | [4] 44.8 µM | [6] 33 µM | [7] > 100 µM | [8] 38.8 µM | [9] > 100 µM | [10] 57.7 µM | [12] 58.9 µM | [14] 28.9 µM

Sc1nnc(-c2cccnc2)[nH]1
inactive: [1] > 100 µM | [15] > 100 µM | [16] > 100 µM | [2] > 100 µM | [17] > 100 µM | [4] > 100 µM | [5] > 100 µM | [7] > 100 µM | [9] > 100 µM | [10] > 100 µM | [11] > 100 µM | [12] > 100 µM | [14] > 100 µM

Cn1c(=O)c2c(ncn2CCCCn2ccnc2[N+](=O)[O-])n(C)c1=O
inactive: [15] > 100 µM | [16] > 100 µM | [2] > 100 µM | [17] > 100 µM | [3] > 100 µM | [4] > 100 µM | [5] > 100 µM | [6] > 100 µM | [7] > 100 µM | [8] > 100 µM | [10] > 100 µM | [11] > 100 µM | [12] > 100 µM | [13] > 100 µM | [14] 38.3 µM

O=C(NCCCCCCCCNC(=O)c1cnc2ccccc2n1)c1cnc2ccccc2n1
inactive: [1] > 100 µM | [15] > 100 µM | [16] > 100 µM | [2] > 100 µM | [17] > 100 µM | [3] > 100 µM | [4] > 100 µM | [5] > 100 µM | [6] > 100 µM | [7] > 100 µM | [8] > 100 µM | [10] > 100 µM | [11] > 100 µM | [13] 32.1 µM | [14] 49.9 µM

C=CC(=O)NCCSCCCOC1(C(=O)O)CC(O)C(NC(C)=O)C(C(O)C(O)CO)O1 (configuration not stated)
inactive: [1] > 100 µM | [15] > 100 µM | [16] > 100 µM | [2] > 100 µM | [17] > 100 µM | [3] > 100 µM | [4] > 100 µM | [6] > 100 µM | [8] > 100 µM | [9] > 100 µM | [10] > 100 µM | [11] > 100 µM | [12] > 100 µM | [13] > 100 µM

O=C1NC2(C=Cc3c(ccc4ccccc34)O2)Oc2ccccc21 (configuration not stated)
inactive: [15] 27.2 µM | [16] 5.18 µM | [2] 20.7 µM | [17] 13.2 µM | [3] 19.2 µM | [4] 13 µM | [5] 31.7 µM | [6] 3.58 µM | [7] 17.2 µM | [8] 15.5 µM | [10] 18.7 µM | [11] 12.7 µM | [12] 15.6 µM | [13] 26.5 µM | [14] 15.1 µM

CCc1ccccc1NC(=O)C(=O)C(C(=O)c1ccc(OC)cc1)c1ccc(OC)cc1 (configuration not stated)
inactive: [15] > 100 µM | [16] > 100 µM | [2] > 100 µM | [17] > 100 µM | [3] > 100 µM | [4] > 100 µM | [5] > 100 µM | [6] > 100 µM | [7] > 100 µM | [8] > 100 µM | [9] > 100 µM | [10] > 100 µM | [11] > 100 µM | [13] > 100 µM

CC(=O)Nc1ccc(S(=O)(=O)NN(C)S(=O)(=O)c2ccc(C)cc2)cc1
inactive: [1] > 100 µM | [15] > 100 µM | [16] > 100 µM | [2] > 100 µM | [17] > 100 µM | [3] > 100 µM | [4] > 100 µM | [5] > 100 µM | [6] > 100 µM | [7] > 100 µM | [8] > 100 µM | [9] > 100 µM | [10] > 100 µM | [11] > 100 µM | [12] > 100 µM

Cn1nc(-c2ccccc2)c(N=[N+]=[N-])cc1=O
inactive: [15] > 100 µM | [16] > 100 µM | [2] > 100 µM | [3] > 100 µM | [4] > 100 µM | [5] > 100 µM | [6] > 100 µM | [7] > 100 µM | [8] > 100 µM | [9] > 100 µM | [10] > 100 µM | [11] > 100 µM | [12] > 100 µM | [13] > 100 µM

COC(=O)OCC1OC(N2C(=O)NC(=O)C(Br)C2N=[N+]=[N-])CC1OC(=O)OC (configuration not stated)
inactive: [1] > 100 µM | [15] > 100 µM | [16] > 100 µM | [2] > 100 µM | [3] > 100 µM | [4] > 100 µM | [5] > 100 µM | [7] > 100 µM | [8] > 100 µM | [9] > 100 µM | [10] > 100 µM | [11] > 100 µM | [12] > 100 µM | [13] > 100 µM | [14] > 100 µM

Cc1ccc(C)c(NC(=O)CC/C(=N\NC(=O)C(N)=O)C(C)C(=O)c2ccc(O)cc2)c1 (configuration not stated)
inactive: [1] > 100 µM | [15] > 100 µM | [16] > 100 µM | [2] > 100 µM | [17] > 100 µM | [3] > 100 µM | [4] > 100 µM | [5] > 100 µM | [6] > 100 µM | [7] > 100 µM | [8] > 100 µM | [9] > 100 µM | [10] > 100 µM | [11] > 100 µM | [12] > 100 µM | [13] > 100 µM

O=P(O)(OCC(O)O)OCC(O)O
inactive: [1] > 100 µM | [15] > 100 µM | [16] > 100 µM | [2] > 100 µM | [17] > 100 µM | [4] > 100 µM | [5] > 100 µM | [6] > 100 µM | [7] > 100 µM | [8] > 100 µM | [9] > 100 µM | [10] > 100 µM | [11] > 100 µM | [12] > 100 µM | [14] > 100 µM
